# Several values for one entry are separate records, joined by “and”; a condition that tells them apart may be missing. Equal entries are not always repeated. Where two headings read alike, the source gives them in different places.
# What was measured:
# [1] = assay type: physicochemical
# Protocol: For each condition, samples were staged at ambient and refrigerated conditions. Samples were analyzed for % assay/degs, appearance, reconstitution time, pH, and compared to T=0. The structures of the key impurities/metabolites are shown below.
# [2] = In use testing of reconstituted solutions in IV bags and IV tubings; assay type: physicochemical
# From the text: The IV bags and IV tubings were sampled over time and tested for % assay/degradation.
# [3] = 24 hours, endogenous ATP
structure (smiles),measurement,setting,value
Oc1ccccc1 [Phenol],% assay/degs,[1]; pH 1.8,0.00%
same,"% assay/degs, difference from T = 0",[1]; pH 1.8,0.00% and 0.04% and 0.08%
same,% assay/degs,[1]; pH 2,0.00%
same,"% assay/degs, difference from T = 0",[1]; pH 2,0.00% and 0.04% and 0.05%
same,% assay/degs,[1]; pH 3.5,0.00%
same,"% assay/degs, difference from T = 0",[1]; pH 3.5,0.00%
same,% assay/degradation,[2],0.00 % w/w
Nc1ncnc2c1ncn2[C@@H]1O[C@H](COP(=O)(O)OP(=O)(O)OP(=O)(O)O)[C@@H](O)[C@H]1O [ATP],ATP Peak Area (LC-MS/MS),"[3]; Nasal Mucosa, 0.168 mg/kg inhaled deposited dose of Formula Ia",6.47 ± 0.40 ×10^8
same,ATP Peak Area (LC-MS/MS),"[3]; Nasal Mucosa, 0.536 mg/kg inhaled deposited dose of Formula Ia",5.65 ± 0.79 ×10^8
same,ATP Peak Area (LC-MS/MS),"[3]; Nasopharyngeal Mucosa, 0.168 mg/kg inhaled deposited dose of Formula Ia",4.29 ± 0.84 ×10^8
same,ATP Peak Area (LC-MS/MS),"[3]; Nasopharyngeal Mucosa, 0.536 mg/kg inhaled deposited dose of Formula Ia",3.69 ± 0.40 ×10^8

# — US11701372B2, “Inhalation formulations of 1'-cyano substituted carba-nucleoside analogs” (priority 2020, dated 2023)
